# Values quoted from earlier work, collected in patent publication US20220280463A1, “PHARMACEUTICAL FORMULATIONS COMPRISING DICLOFENAC” (FTF PHARMA PRIVATE LIMITED, priority 2019, published 2022).
# Test system: erythrocytes
# Conditions: aqueous solution of 2% propylene glycol, in 45 min
structure (smiles),measurement,value
CC(O)CO (stereo not shown) [propylene glycol],haemolysis of erythrocytes,100%
